This is an account of results in ChEMBL document CHEMBL1145715, “Massetolides A-H, antimycobacterial cyclic depsipeptides produced by two pseudomonads isolated from marine habitats” (J Nat Prod, 1997).

As a reminder, the MIC is the least concentration at which growth counts as inhibited. Low readings indicate a more susceptible organism, high ones a less susceptible organism.

In data set [1] the test system is Mycobacterium avium-intracellulare. The experiment in a line: Antimycobacterial activity against Mycobacterium avium-intracellulare by middle-brook 7H10 agar proportion method. The format is functional.
Another data set deals with Mus musculus. As to the kind of experiment: Toxicity in mouse at 10 mg/kg, ip. The format is organism-based. The arrangement: dose 10 mg/kg, route intraperitoneal. The following applies: in vivo.
In data set [2] the test system is Mycobacterium tuberculosis. As to the kind of experiment: Antimycobacterial activity against Mycobacterium tuberculosis by middle-brook 7H10 agar proportion method. The format is functional.
The subject of another data set is Staphylococcus aureus. The experiment in a line: Antibacterial activity against Staphylococcus aureus by middle-brook 7H10 agar proportion method. The format is functional, organism-based.
A further data set relates to Escherichia coli. As to the kind of experiment: Antibacterial activity against Escherichia coli by middle-brook 7H10 agar proportion method. The format is functional, organism-based.

Molecules are shown by their SMILES. Converted amounts (≈) assume the structure as drawn. The source made the active and inactive calls. No cut-off for these calls is given here.

As to `CCCCCCC[C@H](O)CC(=O)N[C@@H](CC(C)C)C(=O)N[C@H](CCC(=O)O)C(=O)N[C@H]1C(=O)N[C@H]([C@@H](C)CC)C(=O)N[C@@H](CC(C)C)C(=O)N[C@H](CO)C(=O)N[C@@H](CC(C)C)C(=O)N[C@H](CO)C(=O)N[C@@H]([C@@H](C)CC)C(=O)O[C@@H]1C` [MASSETOLIDE A], the MIC in data set [1] stood at 2.5 µg/mL (≈ 2.19 µM); in data set [2], 5 µg/mL (≈ 4.38 µM). Moreover, in the data set with Mus musculus, the Activity result was “Non-toxic”.
As for `CCCCCCC[C@H](O)CC(=O)N[C@@H](CC(C)C)C(=O)N[C@H](CCC(=O)O)C(=O)N[C@H]1C(=O)N[C@H]([C@H](C)CC)C(=O)N[C@@H](CC(C)C)C(=O)N[C@H](CO)C(=O)N[C@@H](CC(C)C)C(=O)N[C@H](CO)C(=O)N[C@@H]([C@H](C)CC)C(=O)O[C@@H]1C`, the result in the data set on Staphylococcus aureus and in the data set on Escherichia coli was inactive.
